From ChEMBL document CHEMBL1201862, “PubChem BioAssay data set” (2004) come the findings set out here.

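Five concentrations, 48 hours, 96-well plates. GI50 is the concentration that inhibits growth by half.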 Activity calls are given as the source filed them. Cut-off read from the data, not from the text of the source: active = GI50 up to about 1.1 µM and inactive = higher.

Holding throughout (assay): inhibition of tumour cell growth, NCI panel, 48 h
For assay [1], the system named is CAKI-1.
Assay [2] deals with NCI-H226.
Assay [3] relates to Hs-578T.
For assay [4], the system named is UO-31.
For assay [5], the system named is M14.
Assay [6] concerns MDA-MB-231.
Assay [7] has as its system NCI-H23.
Assay [8] relates to EKVX.
In assay [9] the test system is T47D.
Assay [10] has as its system U-251.
For assay [11], the system named is NCI/ADR-RES.
The test system of assay [12] is COLO 205.
Assay [13] has as its system BT-549.
In assay [14] the test system is MDA-MB-435.
For assay [15], the system named is HCC 2998.
In assay [16] the test system is SF-539.

As to `O=C1[C@@H]2[C@@H](CN3CN(c4ccccc4)N=C(c4ccccc4)[C@@]23c2ccccc2)C(=O)N1c1ccccc1`, the GI50 in [1] was 0.863 µM (active); in [2], 0.977 µM (active); in [3], 20.3 µM (inactive); in assay [4], 1.73 µM (inactive); in assay [5], 2.94 µM (inactive); in [6], 4.54 µM (inactive). In addition, the GI50 in assay [7] is 8.69 µM (inactive); in [8] it was 4.89 µM (inactive); in assay [9], 2.58 µM (inactive); in assay [10], 8.99 µM (inactive); in [11] it was 17.5 µM (inactive); in [12], 1.91 µM (inactive). In addition, the GI50 in assay [13] is 3.61 µM (inactive); in assay [14], 5.68 µM (inactive); in [15], 25.2 µM (inactive).
As for `Oc1cc(Cl)cc2cc(Br)cnc12`, the GI50 in [1] is 6.79 µM (inactive); in assay [2], 22.6 µM (inactive); in assay [3] it was 4.62 µM (inactive); in assay [4], 3.94 µM (inactive); in assay [5], 1.56 µM (inactive); in assay [6], 2.56 µM (inactive). Further, the GI50 in assay [7] was 4.39 µM (inactive); in assay [8] it was 4.14 µM (inactive); in [9] it was 7.28 µM (inactive); in assay [10], 2.07 µM (inactive); in [11], 2.06 µM (inactive); in assay [12], 41.6 µM (inactive). Also, the GI50 is 1.53 µM (inactive) in assay [13], 4.65 µM (inactive) in [14], 15.6 µM (inactive) in [15] and 2.18 µM (inactive) in assay [16].
Take `COc1ccc(C2c3cc4c(cc3OC(N3CCOCC3)C2C)OCO4)cc1OC` (stereo not given): the GI50 is 3.07 µM (inactive) in assay [1]; 6.9 µM (inactive) in [2]; 3.51 µM (inactive) in assay [3]; 18 µM (inactive) in assay [4]; 5.38 µM (inactive) in assay [5]; 16.2 µM (inactive) in [6]. In addition, the GI50 was 20.4 µM (inactive) in assay [7]; 24.4 µM (inactive) in assay [8]; 4.99 µM (inactive) in [9]; 5.52 µM (inactive) in [10]; 3.61 µM (inactive) in [11]; 4.76 µM (inactive) in assay [12]. The GI50 in [13] was 7.48 µM (inactive); in [14], 2.04 µM (inactive); in assay [15], 5.53 µM (inactive); in assay [16] it was 3.89 µM (inactive).
As to `CC/C=C/C[C@H](O[Si](C)(C)C(C)(C)C)[C@H]1C[C@H]2O[C@H]([C@@H](O)C#C[Si](C)(C)C)C[C@H]2O1`, the GI50 in assay [1] was 11.3 µM (inactive); in assay [2] it was 6.68 µM (inactive); in [3], 15.3 µM (inactive); in assay [4], 14.2 µM (inactive); in [5], 12.1 µM (inactive); in assay [6], 14.9 µM (inactive). Further, the GI50 in assay [7] was 12 µM (inactive); in assay [8] it was 12.9 µM (inactive); in assay [9], 7.55 µM (inactive); in assay [10], 15.5 µM (inactive); in assay [11] it was 13.3 µM (inactive); in assay [12], 13.5 µM (inactive). Besides, the results for the GI50 in assay [13], in assay [14] and in assay [15] were 19.2 µM (inactive), 12.3 µM (inactive) and 15.9 µM (inactive), respectively.
For the compound `COc1cccc(CCn2c(N)c(C#N)c3ccc([N+](=O)[O-])cc3c2=O)c1`, the GI50 in assay [1] was > 46.5 µM (inactive); in assay [2], > 31.6 µM (inactive); in assay [3], 39.9 µM (inactive); in assay [4] it was > 46.5 µM (inactive); in assay [5], > 31.6 µM (inactive); in assay [6], > 46.5 µM (inactive). Further, the GI50 was > 46.5 µM (inactive) in [7]; > 31.6 µM (inactive) in [8]; > 46.5 µM (inactive) in assay [9]; > 100 µM (inactive) in assay [10]; > 46.5 µM (inactive) in [11]; > 100 µM (inactive) in [12]. Also, the GI50 in assay [13] was > 10 µM (inactive); in assay [14] it was 0.22 µM (active); in assay [15], > 46.5 µM (inactive); in assay [16] it was > 10 µM (inactive).
Take `CN(C)c1ccc(C2SCC(=O)N2c2nc3cc4sc(N5C(=O)CSC5c5ccc(N(C)C)cc5)nc4cc3s2)cc1` (stereo not given): the GI50 in assay [1] was 8.49 µM (inactive); in assay [2] it was 7.62 µM (inactive); in assay [3], 47.2 µM (inactive); in [4] it was 23.1 µM (inactive); in assay [5], 51.3 µM (inactive); in assay [6], > 51.8 µM (inactive). Also, the GI50 in assay [7] is 11.4 µM (inactive); in [8], 54.1 µM (inactive); in assay [9], 31.6 µM (inactive); in assay [10], 30.7 µM (inactive); in assay [11], > 23.3 µM (inactive); in assay [12], 3.73 µM (inactive). The GI50 in assay [13] is 22.9 µM (inactive); in assay [14], 28 µM (inactive); in assay [15], > 100 µM (inactive); in [16], 51.5 µM (inactive).
Consider `CC(Cc1ccc2c(c1)OCO2)N(C)C(=O)C1=CCN(C)CC1` (stereo not given), for which the GI50 in [1], in [2], in assay [3], in [4], in assay [5] and in assay [6] was > 100 µM (inactive) throughout. Also, the GI50 in assay [7], in assay [8], in [9], in assay [10], in assay [11] and in [12] was > 100 µM (inactive) throughout. Moreover, the GI50 in assay [13], in assay [14] and in assay [15] was > 100 µM (inactive) throughout.
Turning to `O=C(/C=C/c1ccccc1)Oc1cccc(O)c1`, the GI50 in [1] is 49.1 µM (inactive); in assay [2], > 100 µM (inactive); in assay [3], 25.9 µM (inactive); in assay [4], > 100 µM (inactive); in assay [5], 43.1 µM (inactive); in assay [6], 47.9 µM (inactive). In addition, the GI50 in assay [7] is 63.8 µM (inactive); in assay [9], 59.6 µM (inactive); in assay [10] it was 34.3 µM (inactive); in assay [11], 42.8 µM (inactive); in [12], 55 µM (inactive); in assay [13] it was > 100 µM (inactive). The GI50 in assay [14], in assay [15] and in assay [16] was > 100 µM (inactive) each time.
Consider `C=C(Cl)C(Br)(CCl)CCC(Br)C(C)(C)Cl` (stereo not given), for which the GI50 in assay [1] was 4.95 µM (inactive); in [2], 5.32 µM (inactive); in assay [3], 3.66 µM (inactive); in assay [4], 5.61 µM (inactive); in assay [5], 2.91 µM (inactive); in assay [6], 1.64 µM (inactive). Further, the GI50 in [7] is 3.75 µM (inactive); in [8] it was 5.58 µM (inactive); in [9], 1.15 µM (inactive); in [10], 7.24 µM (inactive); in assay [11], 3.17 µM (inactive); in assay [12], 4.53 µM (inactive). The GI50 in assay [13] is 2.52 µM (inactive); in assay [14], 3.57 µM (inactive); in assay [15], 14.1 µM (inactive); in assay [16] it was 6.95 µM (inactive).
Turning to `CC(=O)N(C)SCC(NC(=O)C(Cc1ccccc1)NC(=O)OCc1ccccc1)C(=O)NC(Cc1ccccc1)C(=O)NC(Cc1cn(C=O)c2ccccc12)C(=O)NC(CCCCNC(=O)OCc1ccccc1)C(=O)NC(C(=O)NC(CSN(C)C(C)=O)C(=O)NO)C(C)OCc1ccccc1` (stereo not given), the GI50 in [2], in [3], in [4], in assay [5], in assay [6] and in [7] was > 100 µM (inactive) each time. Moreover, the GI50 in assay [8], in assay [9], in [10], in assay [11], in assay [12] and in [13] was > 100 µM (inactive) in each case. Moreover, the GI50 in [14], in assay [15] and in [16] was > 100 µM (inactive) in each case.
Turning to `Cc1nc2ccccc2cc1C[N+]12CN3CN(CN(C3)C1)C2`, the GI50 was 27.5 µM (inactive) in [1]; 23.6 µM (inactive) in assay [2]; 35.6 µM (inactive) in assay [3]; 23.6 µM (inactive) in [4]; 18.5 µM (inactive) in assay [5]; 16.4 µM (inactive) in [6]. The GI50 is 17.5 µM (inactive) in [7]; 23.3 µM (inactive) in assay [8]; 18.7 µM (inactive) in assay [9]; 12.1 µM (inactive) in assay [10]; 22.4 µM (inactive) in [11]; 14.1 µM (inactive) in assay [12]. Further, the GI50 in assay [13] was 19.3 µM (inactive); in [14], 22.2 µM (inactive); in assay [15] it was 17.1 µM (inactive); in [16], 14.2 µM (inactive).
On to `CCOC(=O)N/N=C(/N)Cc1ccccc1`, for which the GI50 in assay [1], in [3], in assay [4], in assay [5], in [6] and in assay [8] was > 100 µM (inactive) throughout. Moreover, the GI50 in assay [9] is > 100 µM (inactive); in assay [10], > 10 µM (inactive); in [11], > 100 µM (inactive); in assay [12], > 100 µM (inactive); in [13], > 100 µM (inactive); in [14], > 100 µM (inactive). The GI50 in assay [15] and in assay [16] was > 100 µM (inactive) throughout.
